Laboratory results from patent publication EP1611889A1, “ANTIBACTERIAL AGENT AND ANTICANCER AGENT” (MITSUBISHI CORPORATION, priority 2003, dated 2004).

Experiment: Solubility in DMSO
Assay type: physicochemical

Which “dissolved in DMSO at a concentration” value does the source give for “C60-bis(N,N-dimethyl-2-hexylpyyrolidinium iodido) [derivative 4]” here?
Its value is at least 5 mM.
